Results: the supplement of paper PMC10307832

How the values were obtained:
Assay in all cases: relative viability (nuclei count vs DMSO), 5 days (fraction); higher = more cells survive
Linifanib = compound: Cc1ccc(F)c(NC(=O)Nc2ccc(-c3cccc4[nH]nc(N)c34)cc2)c1 [Linifanib]
In short: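 Viability was defined as treated-well nuclei divided by vehicle-well nuclei, with the median taken over replicate plates. Cells from lung cancer lines sat overnight at 37 °C in 1536-well plates, received five √10-spaced library-drug doses by pinning on vehicle-anchored plates, and grew 5 days without medium change before one-step fixation, permeabilisation and Hoechst staining, 4× imaging and MetaXpress nuclear counts. Only plates with control CV under 25% and at least one doubling were kept.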

Linifanib + Trametinib = compound: Cc1ccc(F)c(NC(=O)Nc2ccc(-c3cccc4[nH]nc(N)c34)cc2)c1 [Linifanib] + CC(=O)Nc1cccc(-n2c(=O)n(C3CC3)c(=O)c3c(Nc4ccc(I)cc4F)n(C)c(=O)c(C)c32)c1 [Trametinib] (partner 0.02 µM)
In short: (§1)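 For relative viability, nuclei counts in treated wells were divided by those in vehicle wells. Lung cancer cell lines had been pin-tool dosed in 1536-well plates the day after seeding and cultured for 5 days, then fixed and stained in one step (final 0.05% Triton X-100, 1% formaldehyde, 1 ug/ml Hoechst) and imaged at 4×. Doses were one drug alone or a fixed anchor-drug dose plus five library-drug doses (not always all listed) in √10 steps, and values are duplicate-plate medians.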

Linifanib + Bortezomib = compound: Cc1ccc(F)c(NC(=O)Nc2ccc(-c3cccc4[nH]nc(N)c34)cc2)c1 [Linifanib] + CC(C)C[C@H](NC(=O)[C@H](Cc1ccccc1)NC(=O)c1cnccn1)B(O)O [Bortezomib] (partner 0.002 µM)
In short: as §1

Linifanib + Phenformin = compound: Cc1ccc(F)c(NC(=O)Nc2ccc(-c3cccc4[nH]nc(N)c34)cc2)c1 [Linifanib] + N=C(N)NC(=N)NCCc1ccccc1 [Phenformin] (partner 250 µM)
In short: as §1

Linifanib + Decitabine = compound: Cc1ccc(F)c(NC(=O)Nc2ccc(-c3cccc4[nH]nc(N)c34)cc2)c1 [Linifanib] + Nc1ncn([C@H]2C[C@H](O)[C@@H](CO)O2)c(=O)n1 [Decitabine] (partner 2 µM)
In short: as §1

Linifanib + Vorinostat = compound: Cc1ccc(F)c(NC(=O)Nc2ccc(-c3cccc4[nH]nc(N)c34)cc2)c1 [Linifanib] + O=C(CCCCCCC(=O)Nc1ccccc1)NO [Vorinostat] (partner 1 µM)
In short: as §1

Row | Cell Line | relative viability (Linifanib; 0.03162 µM) | relative viability (Linifanib; 0.1 µM) | relative viability (Linifanib; 0.3162 µM) | relative viability (Linifanib + Trametinib; first compound 0.03162 µM) | relative viability (Linifanib + Trametinib; first compound 0.1 µM) | relative viability (Linifanib + Trametinib; first compound 0.3162 µM) | relative viability (Linifanib + Bortezomib; first compound 0.03162 µM) | relative viability (Linifanib + Bortezomib; first compound 0.1 µM) | relative viability (Linifanib + Bortezomib; first compound 0.3162 µM) | relative viability (Linifanib + Phenformin; first compound 0.03162 µM) | relative viability (Linifanib + Phenformin; first compound 0.1 µM) | relative viability (Linifanib + Phenformin; first compound 0.3162 µM) | relative viability (Linifanib + Decitabine; first compound 0.03162 µM) | relative viability (Linifanib + Decitabine; first compound 0.1 µM) | relative viability (Linifanib + Decitabine; first compound 0.3162 µM) | relative viability (Linifanib + Vorinostat; first compound 0.03162 µM) | relative viability (Linifanib + Vorinostat; first compound 0.1 µM) | relative viability (Linifanib + Vorinostat; first compound 0.3162 µM)
1 | PC-14 | 0.999 | 1 | 0.904 | 0.689 | 0.715 | 0.666 | 0.924 | 0.989 | 0.746 | 0.557 | 0.59 | 0.491 | 0.231 | 0.252 | 0.206 | 0.784 | 0.83 | 0.768
2 | NCI-H647 | 1.05 | 1.05 | 0.945 | 0.567 | 0.526 | 0.588 | 1.25 | 1.14 | 1.07 | 0.654 | 0.441 | 0.522 | 0.339 | 0.368 | 0.481 | 0.638 | 0.672 | 0.516
3 | LCLC-103H | 1.02 | 1.03 | 0.981 | 0.721 | 0.669 | 0.64 | 1.19 | 1.16 | 1.15 | 0.329 | 0.338 | 0.329 | 0.75 | 0.667 | 0.696 | 0.848 | 0.764 | 0.734
4 | NCI-H2228 | 0.993 | 1.3 | 1.03 | 0.511 | 0.719 | 0.587 | 0.815 | 1.32 | 0.959 | 0.242 | 0.296 | 0.301 | – | – | – | 0.794 | 0.808 | 0.603
5 | NCI-H2085 | 1.02 | 1.06 | 1.01 | 0.67 | 0.503 | 0.59 | 1.07 | 1.06 | 0.971 | 0.878 | 0.786 | 0.712 | 0.535 | 0.632 | 0.573 | 0.854 | 0.832 | 0.792
6 | H3255 | 1.04 | 1.01 | 1.02 | 0.629 | 0.698 | 0.554 | 0.809 | 0.781 | 0.728 | 0.345 | 0.203 | 0.438 | 0.559 | 0.667 | 0.615 | 0.788 | 0.795 | 0.812
7 | LK-2 | 1.05 | 1.12 | 0.965 | 0.707 | 0.769 | 0.742 | – | – | – | 0.447 | 0.691 | 0.4 | 0.305 | 0.365 | 0.224 | 0.286 | 0.529 | 0.283
8 | NCI-H441 | 1.1 | 1.27 | 0.974 | 0.457 | 0.518 | 0.409 | 0.496 | 0.43 | 0.371 | 0.854 | 0.93 | 0.899 | 0.264 | 0.291 | 0.253 | 0.626 | 0.81 | 0.658
9 | SW 900 | 0.912 | 1.02 | 0.865 | 0.76 | 0.83 | 0.912 | – | – | – | 0.659 | 0.779 | 0.575 | 0.478 | 0.515 | 0.474 | 0.57 | 0.603 | 0.485
10 | PC-3 [JPC-3] | 1.06 | 1.03 | 0.939 | 0.706 | 0.756 | 0.659 | 0.728 | 0.805 | 0.77 | 0.491 | 0.474 | 0.442 | 0.766 | 0.792 | 0.847 | 0.671 | 0.747 | 0.775
11 | NCI-H2342 | 1.04 | 0.977 | 0.882 | 0.848 | 0.744 | 0.878 | – | – | – | 0.679 | 0.624 | 0.667 | 0.732 | 0.713 | 0.768 | 0.825 | 0.771 | 0.734
12 | NCI-H1437 | 1.07 | 1.01 | 0.978 | 0.559 | 0.618 | 0.45 | 0.644 | 0.688 | 0.491 | 0.32 | 0.296 | 0.276 | 0.62 | 0.573 | 0.571 | 0.851 | 0.918 | 0.819
13 | HCC-827 | 1 | 1.06 | 1.02 | 0.559 | 0.522 | 0.514 | 1.04 | 0.991 | 0.977 | 0.432 | 0.453 | 0.382 | 0.32 | 0.31 | 0.331 | 0.792 | 0.814 | 0.802
14 | HCC-44 | 1.05 | 0.95 | 0.944 | 1.05 | 1.07 | 1.03 | 0.925 | 0.915 | 0.818 | 0.29 | 0.195 | 0.248 | 0.984 | 0.862 | 0.961 | 1.22 | 1.04 | 1.14
15 | NCI-H2126 | 1.02 | 1.01 | 0.972 | 0.584 | 0.571 | 0.547 | 1.05 | 1.1 | 1.14 | 0.557 | 0.535 | 0.542 | 0.58 | 0.538 | 0.575 | 0.797 | 0.859 | 0.873
16 | NCI-H596 | 0.94 | 1.03 | 0.884 | 0.813 | 0.894 | 0.749 | 0.899 | 1.06 | 1.08 | 0.707 | 0.734 | 0.899 | 0.915 | 1.01 | 1.06 | 0.604 | 0.624 | 0.689
17 | NCI-H460 | 0.984 | 1.03 | 0.92 | 0.178 | 0.168 | 0.146 | 1.03 | 1.18 | 0.925 | 0.546 | 0.542 | 0.489 | 0.492 | 0.583 | 0.475 | 0.713 | 0.877 | 0.596
18 | NCI-H1792 | 0.935 | 0.944 | 0.928 | 0.389 | 0.459 | 0.439 | 0.93 | 0.975 | 0.937 | 0.517 | 0.519 | 0.337 | 0.525 | 0.643 | 0.464 | – | – | –
